Measured values: US10111890B2, “9-aminomethyl minocycline compounds and uses thereof” (Paratek Pharmaceuticals, Inc., priority 2016, dated 2018)

Test system: ABSSSI known or suspected to be due to Gram-positive pathogens
Test: Phase 3 oral omadacycline vs oral linezolid in ABSSSI: Early Clinical Response 48-72 hours after first dose
Assay type: in vivo, human
Details: for Early Clinical Success, %: micro-mITT, % of N1
[1] = 48-72 hours after first dose, mITT population
[2] = Cellulitis/erysipelas, actual type, 48-72 hours, mITT
[3] = Cellulitis/erysipelas, as randomized, 48-72 hours, mITT
[4] = Major Abscess, actual type, 48-72 hours, mITT
[5] = Major Abscess, as randomized, 48-72 hours, mITT
[6] = Wound Infection, actual type, 48-72 hours, mITT
[7] = Wound Infection, as randomized, 48-72 hours, mITT

Compound: CC(=O)NCC1CN(c2ccc(N3CCOCC3)c(F)c2)C(=O)O1 (stereo not shown) [Linezolid, N-[[3-(3-fluoro-4-morpholinophenyl)-2-oxooxazolidin-5-yl]methyl]acetamide, reference compound]
- Early Clinical Response: Clinical Failure [1]: 32 (8.9) n (%)
- Early Clinical Response: Clinical Failure or Indeterminate [1]: 63 (17.5) n (%)
- Early Clinical Response: Indeterminate [1]: 31 (8.6) n (%)
- Early Clinical Response: Clinical Success (48-72 hours after first dose, mITT population (N = 360 per arm)): 297 (82.5) n (%)
- Early Clinical Response: Clinical Success (Cellulitis/erysipelas, actual type of infection, 48-72 hours, mITT): 65 (77.4) n (%)
- Early Clinical Response: Clinical Failure [2]: 12 (14.3) n (%)
- Early Clinical Response: Clinical Failure or Indeterminate [2]: 19 (22.6) n (%)
- Early Clinical Response: Indeterminate [2]: 7 (8.3) n (%)
- Early Clinical Response: Clinical Failure [3]: 12 (14.3) n (%)
- Early Clinical Response: Clinical Failure or Indeterminate [3]: 19 (22.6) n (%)
- Early Clinical Response: Indeterminate [3]: 7 (8.3) n (%)
- Early Clinical Response: Clinical Success (Cellulitis/erysipelas, type of infection as randomized, 48-72 hours, mITT): 65 (77.4) n (%)
- Early Clinical Response: Clinical Success (Major Abscess, actual type of infection, 48-72 hours, mITT): 55 (88.7) n (%)
- Early Clinical Response: Clinical Failure [4]: 4 (6.5) n (%)
- Early Clinical Response: Clinical Failure or Indeterminate [4]: 7 (11.3) n (%)
- Early Clinical Response: Indeterminate [4]: 3 (4.8) n (%)
- Early Clinical Response: Clinical Failure [5]: 4 (6.5) n (%)
- Early Clinical Response: Clinical Failure or Indeterminate [5]: 7 (11.3) n (%)
- Early Clinical Response: Indeterminate [5]: 3 (4.8) n (%)
- Early Clinical Response: Clinical Success (Major Abscess, type of infection as randomized, 48-72 hours, mITT): 55 (88.7) n (%)
- Early Clinical Response: Clinical Success (Wound Infection, actual type of infection, 48-72 hours, mITT): 177 (82.7) n (%)
- Early Clinical Response: Clinical Failure [6]: 16 (7.5) n (%)
- Early Clinical Response: Clinical Failure or Indeterminate [6]: 37 (17.3) n (%)
- Early Clinical Response: Indeterminate [6]: 21 (9.8) n (%)
- Early Clinical Response: Clinical Failure [7]: 16 (7.5) n (%)
- Early Clinical Response: Clinical Failure or Indeterminate [7]: 37 (17.3) n (%)
- Early Clinical Response: Indeterminate [7]: 21 (9.8) n (%)
- Early Clinical Response: Clinical Success (Wound Infection, type of infection as randomized, 48-72 hours, mITT): 177 (82.7) n (%)
- Early Clinical Success, % (baseline pathogen Clostridium perfringens, 48-72 hours after first dose): (100.0) %
- Early Clinical Success, % (baseline pathogen Enterobacter cloacae, 48-72 hours after first dose): (83.3) %
- Early Clinical Success, % (baseline pathogen Enterococcus faecalis VRE, 48-72 hours after first dose): (100.0) %
- Early Clinical Success, % (baseline pathogen Enterococcus faecalis VSE, 48-72 hours after first dose): (60.0) %
- Early Clinical Success, % (baseline pathogen Enterococcus faecalis, 48-72 hours after first dose): (66.7) %
- Early Clinical Success, % (baseline pathogen Enterococcus faecium VSE, 48-72 hours after first dose): (100.0) %
- Early Clinical Success, % (baseline pathogen Enterococcus faecium, 48-72 hours after first dose): (100.0) %
- Early Clinical Success, % (baseline pathogen Escherichia coli, 48-72 hours after first dose): (100.0) %
- Early Clinical Success, % (baseline pathogen Finegoldia magna, 48-72 hours after first dose): (0.0) %
- Early Clinical Success, % (baseline pathogen Klebsiella pneumoniae, 48-72 hours after first dose): (83.3) %
- Early Clinical Success, % (baseline pathogen MRSA, 48-72 hours after first dose): (88.8) %
- Early Clinical Success, % (baseline pathogen MSSA, 48-72 hours after first dose): (79.2) %
- Early Clinical Success, % (baseline pathogen Prevotella denticola, 48-72 hours after first dose): (100.0) %
- Early Clinical Success, % (baseline pathogen Prevotella melaninogenica, 48-72 hours after first dose): (100.0) %
- Early Clinical Success, % (baseline pathogen Staphylococcus aureus, 48-72 hours after first dose): (83.3) %
- Early Clinical Success, % (baseline pathogen Streptococcus agalactiae, 48-72 hours after first dose): (50.0) %
- Early Clinical Success, % (baseline pathogen Streptococcus anginosus group, 48-72 hours after first dose): (80.0) %
- Early Clinical Success, % (baseline pathogen Streptococcus anginosus, 48-72 hours after first dose): (85.0) %
- Early Clinical Success, % (baseline pathogen Streptococcus constellatus, 48-72 hours after first dose): (100.0) %
- Early Clinical Success, % (baseline pathogen Streptococcus intermedius, 48-72 hours after first dose): (75.0) %
- Early Clinical Success, % (baseline pathogen Streptococcus pyogenes, 48-72 hours after first dose): (81.3) %
